Results: US9597407B2, “Targeted antimicrobial moieties” (C3 Jian, Inc., priority 2009, dated 2017)
Entries after “also recorded” stand apart in the source; their conditions may differ. Ends that are not written are not given here.

Legend:
microorganisms [1] = experiment: Peptide activities: binding, antimicrobial, growth or phenotype altering (Table 8)
Excerpt: In certain embodiments, peptides described herein can have multiple activities. Thus for example, a peptide can have both binding/targeting activity and antimicrobial activity. Such peptides can be used, e.g., in a chimeric construct, for any or all of these properties. Thus, for example, a peptide designated “B” in Table 8 can be used as a targeting peptide. If it is also designated G or M it can also be used for antimicrobial activity.

bacteria = experiment: Binding of targeting peptides to microorganisms (Table 3); conditions: preferably 1x PBS; for Target(s) (microorganism bound by the targeting peptide) / Target(s) (microorganisms bound by the targeting peptide): peptide binding in aqueous buffers that varied depending on peptide solubility; for Target(s): microorganism the targeting peptide binds, binding in aqueous buffers that varied with peptide solubility
microorganisms [2] = experiment: Morphology, biofilm and growth disruption by peptides (Table 5); format: cell-based; parameters: key: A: Peptide aggregates; B: Less hyphal formation; Clumps; Diffuse clumps and small polyps; F: Diffuse growth; H: Thin; I: Growth inhibition; Microcolony formation; Rippled; Small polyps; Thick; W: Halo formation on top, microlonies on bottom
Excerpt: In certain embodiments peptides that induce alterations in phenotype or other biological activities can also be used as antimicrobial effector moieties.

Row | Substance | Activities (microorganisms [1]) | Target(s) (microorganism bound by the targeting peptide) (bacteria) | Target(s) (microorganisms bound by the targeting peptide) (bacteria) | Organism, effect (morphology, biofilm and growth disruption) (microorganisms [2]; MRSA) | Organism, effect (morphology, biofilm and growth disruption) (microorganisms [2]; S. pneumoniae) | other results
1 | PF-C061 (TLNYKKMFFSVIFLLGLNYLICNSPLFFKQIEF; Peptide with targeting and/or antimicrobial activity) | G B | A. naeslundii; also recorded: F. nucleatum; also recorded: P. gingivalis; also recorded: S. mutans; also recorded: T. denticola |  |  |  | Organism, effect (morphology, biofilm and growth disruption) (microorganisms [2]; F. nucleatum): F. nucleatum (T); Organism, effect (morphology, biofilm and growth disruption) (microorganisms [2]; S. mutans): S. mutans (F)
2 | PF-519 (YLVYSGVLATAAAF-NH2) | G B |  | M. luteus; also recorded: E. faecalis; also recorded: C. jeikeium | MRSA (C) | S. pneumoniae (S) | Organism, effect (morphology, biofilm and growth disruption) (microorganisms [2]; E. coli): E. coli (R); Organism, effect (morphology, biofilm and growth disruption) (microorganisms [2]; E. faecalis): E. faecalis (C)
3 | PF-389 (GLQFKEIAEEFHITTTALQQWHKDNGYPIYNKNNRK; Peptide with targeting and/or antimicrobial activity) | G B |  | S. epidermidis and C. albicans and MRSA and S. pneumoniae and E. faecalis and C. jeikeium |  |  | Organism, effect (microorganisms [2]; C. jejuni): C. jejuni (R); Organism, effect (microorganisms [2]; E. faecalis): E. faecalis (R); Organism, effect (microorganisms [2]; MRSA): MRSA (C); Organism, effect (microorganisms [2]; S. epidermidis): S. epidermidis (R); Organism, effect (microorganisms [2]; S. pneumoniae): S. pneumoniae (D)
4 | PF-515 (DKSTQDKDIKQAKLLAQELGL-NH2) | G B |  | S. epidermidis; also recorded: C. albicans; also recorded: S. pneumoniae; also recorded: C. jeikeium |  | S. pneumoniae (H) | 
5 | PF-472 (MHISHLLDEVEQTEREKAVNVLENMNGNVI; Peptide with targeting and/or antimicrobial activity) | G B |  | S. epidermidis and E. coli and P. aeruginosa and C. albicans and MRSA and S. pneumoniae and E. faecalis and C. jeikeium | MRSA (C) | S. pneumoniae (R) | Organism, effect (morphology, biofilm and growth disruption) (microorganisms [2]; C. jejuni): C. jejuni (R); Organism, effect (morphology, biofilm and growth disruption) (microorganisms [2]; E. faecalis): E. faecalis (A)
6 | PF-459 (EKRMSFNENQSHRPLL; Peptide with targeting and/or antimicrobial activity) | G B |  | P. aeruginosa |  | S. pneumoniae (H) | 
7 | PF-741 (chain 1 AKREDTVAAQIGANILNLIQ; chain 2 AKREDTVAAQIGANILNLIQ; Peptide with targeting and/or antimicrobial activity) | G B | S. epidermidis and M. luteus and P. mirabilis and P. aeruginosa and C. albicans and MRSA and S. pneumoniae and E. faecalis |  | MRSA (C) | S. pneumoniae (D) | Organism, effect (morphology, biofilm and growth disruption) (microorganisms [2]; E. coli): E. coli (C); Organism, effect (morphology, biofilm and growth disruption) (microorganisms [2]; M. luteus): M. luteus (C); Organism, effect (morphology, biofilm and growth disruption) (microorganisms [2]; P. mirabilis): P. mirabilis (C); Organism, effect (morphology, biofilm and growth disruption) (microorganisms [2]; S. epidermidis): S. epidermidis (C); Organism, effect (morphology, biofilm and growth disruption) (microorganisms [2]; S. mutans): S. mutans (D)
8 | PF-470 (PYSDSYATRPHWEQHRAR; Peptide with targeting and/or antimicrobial activity) | G B |  | M. luteus and E. coli and MRSA and E. faecalis and C. jeikeium and C. jejuni |  |  | Organism, effect (morphology, biofilm and growth disruption) (microorganisms [2]; C. jejuni): C. jejuni (A); Organism, effect (morphology, biofilm and growth disruption) (microorganisms [2]; E. faecalis): E. faecalis (A)
9 | PF-393 (DLVQSILSEFKKSG; Peptide with targeting and/or antimicrobial activity) | G B |  | S. epidermidis and E. coli and C. albicans and MRSA and S. pneumoniae and C. jejuni |  |  | Organism, effect (microorganisms [2]; C. jejuni): C. jejuni (R); Organism, effect (microorganisms [2]; E. faecalis): E. faecalis (A); Organism, effect (microorganisms [2]; MRSA): MRSA (C); Organism, effect (microorganisms [2]; S. epidermidis): S. epidermidis (R); Organism, effect (microorganisms [2]; S. pneumoniae): S. pneumoniae (R)
10 | PF-385 (MIKKSILKIKYYVPVLISLTLILSA; Peptide with targeting and/or antimicrobial activity) | G B |  | S. epidermidis; also recorded: E. coli; also recorded: P. aeruginosa; also recorded: C. albicans; also recorded: E. faecalis |  |  | Organism, effect (microorganisms [2]; E. coli): E. coli (A)
11 | PF-553 (LTIVGNALQQKNQKLLLNQKKITSLG; Peptide with targeting and/or antimicrobial activity) | G B |  | S. epidermidis and E. coli and P. aeruginosa and C. albicans and MRSA and S. pneumoniae and C. jeikeium | MRSA (M) | S. pneumoniae (R) | Organism, effect (morphology, biofilm and growth disruption) (microorganisms [2]; B. subtilis): B. subtilis (D); Organism, effect (morphology, biofilm and growth disruption) (microorganisms [2]; C. jeikeium): C. jeikeium (R)
12 | PF-025 (LLIIFRLWLELKWKNKK; Peptide with targeting and/or antimicrobial activity) | G B |  |  |  |  | Target(s) (bacteria): S. epidermidis and M. luteus and P. mirabilis and E. coli and P. aeruginosa and MRSA and E. faecalis and C. jejuni; Organism, effect (microorganisms [2]; C. jeikeium): C. jeikeium (A); Organism, effect (microorganisms [2]; M. luteus): M. luteus (A); Organism, effect (microorganisms [2]; MRSA): MRSA (R); Organism, effect (microorganisms [2]; S. epidermidis): S. epidermidis (S)
13 | PF-566 (EAQQVTQQLGADFNAITTPTATKV; Peptide with targeting and/or antimicrobial activity) | G B |  | P. mirabilis; also recorded: S. pneumoniae | MRSA (M) | S. pneumoniae (D) | Organism, effect (morphology, biofilm and growth disruption) (microorganisms [2]; B. subtilis): B. subtilis (C); Organism, effect (morphology, biofilm and growth disruption) (microorganisms [2]; C. jeikeium): C. jeikeium (C); Organism, effect (morphology, biofilm and growth disruption) (microorganisms [2]; C. jejuni): C. jejuni (D); Organism, effect (morphology, biofilm and growth disruption) (microorganisms [2]; M. luteus): M. luteus (D)
14 | PF-015 (SIDKRNLYNLKYYE; Peptide with targeting and/or antimicrobial activity) | G B |  |  |  |  | Target(s) (bacteria): E. faecalis; also recorded: C. jeikeium; Organism, effect (microorganisms [2]; MRSA): MRSA (W)
15 | PF-744 (chain 1 LGVGTFVGKVLIKNQQKQKSKKKAQ; chain 2 LGVGTFVGKVLIKNQQKQKSKKKAQ; Peptide with targeting and/or antimicrobial activity) | G B | S. epidermidis and M. luteus and E. coli and MRSA and S. pneumoniae and E. faecalis and C. jeikeium |  |  | S. pneumoniae (H) | 
16 | PF-058 (FADQSQDNA; Peptide with targeting and/or antimicrobial activity) | G B |  |  |  |  | Target(s) (bacteria): S. epidermidis and M. luteus and E. coli and C. albicans and MRSA and C. jeikeium and C. jejuni; Organism, effect (microorganisms [2]; MRSA): MRSA (M)
17 | PF-622 (chain 1 TREDVFSVRLINNIVNKQA; chain 2 TREDVFSVRLINNIVNKQA; Peptide with targeting and/or antimicrobial activity) | G B | S. epidermidis; also recorded: P. aeruginosa; also recorded: C. albicans; also recorded: S. pneumoniae; also recorded: E. faecalis; also recorded: C. jeikeium |  | MRSA (D) | S. pneumoniae (M) | Organism, effect (morphology, biofilm and growth disruption) (microorganisms [2]; C. jeikeium): C. jeikeium (D); Organism, effect (morphology, biofilm and growth disruption) (microorganisms [2]; E. faecalis): E. faecalis (D); Organism, effect (morphology, biofilm and growth disruption) (microorganisms [2]; S. epidermidis): S. epidermidis (D)
18 | PF-756 (chain 1 DALLRLA; chain 2 DALLRLA; Peptide with targeting and/or antimicrobial activity) | G B | S. epidermidis and M. luteus and C. albicans and MRSA and C. jeikeium |  |  | S. pneumoniae (A) | 
19 | PF-020 (MKIILLLFLIFGFIVVVTLKSEHQLTLFSI; Peptide with targeting and/or antimicrobial activity) | G B |  |  |  |  | Target(s) (bacteria): S. epidermidis and M. luteus and C. albicans and MRSA and S. pneumoniae and E. faecalis; Organism, effect (microorganisms [2]; M. luteus): M. luteus (C); Organism, effect (microorganisms [2]; MRSA): MRSA (C); Organism, effect (microorganisms [2]; S. epidermidis): S. epidermidis (C); Organism, effect (microorganisms [2]; S. mutans): S. mutans (F); Organism, effect (microorganisms [2]; S. pneumoniae): S. pneumoniae (D)
20 | PF-616 (chain 1 IVFVVTKEKK; chain 2 IVFVVTKEKK; Peptide with targeting and/or antimicrobial activity) | G B | C. jeikeium |  |  |  | Organism, effect (morphology, biofilm and growth disruption) (microorganisms [2]; E. faecalis): E. faecalis (A); Organism, effect (morphology, biofilm and growth disruption) (microorganisms [2]; S. epidermidis): S. epidermidis (R)
21 | PF-623 (chain 1 VLFAVYLGALDWLFSWLTQKM; chain 2 VLFAVYLGALDWLFSWLTQKM; Peptide with targeting and/or antimicrobial activity) | G B | S. epidermidis and P. aeruginosa and MRSA and S. pneumoniae and E. faecalis and C. jeikeium |  | MRSA (D) | S. pneumoniae (D) | Organism, effect (morphology, biofilm and growth disruption) (microorganisms [2]; C. jeikeium): C. jeikeium (R); Organism, effect (morphology, biofilm and growth disruption) (microorganisms [2]; E. faecalis): E. faecalis (D); Organism, effect (morphology, biofilm and growth disruption) (microorganisms [2]; S. epidermidis): S. epidermidis (M)
